Experimental data reported in patent US6793943B2, “Health food products” (priority 2000, dated 2004).

Key:
[1] = administration of three kinds of samples for 2 months to groups of 30 persons; type: in vivo; details: numbers of the persons; administered for 2 months; group of 30 persons
Source text: (a) a sample of cholic acid alone,
(b) a sample of soybean isoflavone glycoside alone, and
were each administered for 2 months to each group containing 30 persons to be tested.

[2] = preliminary administration experiment; type: in vivo; details: several persons who ingested the substance alone

**Q.** With `C[C@H](CCC(=O)O)[C@H]1CC[C@H]2[C@@H]3[C@H](O)C[C@@H]4C[C@H](O)CC[C@]4(C)[C@H]3C[C@H](O)[C@]12C` [cholic acid] as the compound, how does the “Alcoholic beverage tasted good” value [1] read?
**A.** 8 Persons

**Q.** What about the Evacuation became easy [1] of the same compound?
**A.** 1 Person Persons

**Q.** And the Feces amount increased [1]?
**A.** No Person

**Q.** What about the No hangover noted [1] of the same compound?
**A.** 4 Persons

**Q.** What about the “Significantly recovered from fatigue” value [1] of the same compound?
**A.** No Person

**Q.** What about the “troubles by drinking an alcoholic beverage” value [2] of the same compound?
**A.** ameliorated
